# How the values were obtained:
# R. solani [1] = test: Zone of inhibition assay on PDA plates; assay type: cell-based, Rhizoctonia solani
# Experimental: To test the efficacy of calcium propionate (CaP) against the four microbes listed above, zone of inhibition assays were performed. Wells were bored in potato dextrose agarose (PDA) plates then amended with […] calcium propionate at concentrations of 0.1%, 0.2%, 0.3%, 0.4%, and 0.5% (w/v). Control plates were amended with […] dH2O. Plates were inoculated using plugs from active cultures. Growth patterns were observed over seven days. Representative results with M. poae are shown at three days following inoculation (FIG. 1A) and seven days following inoculation (FIG. 1B).
# The zone of inhibition assays described in Example 1 were performed using calcium propionate doses of 0.5%, 1%, 2%, 3%, and 4% (w/v). Growth diameter was recorded at 2, 5, and 7 days post inoculation. The data shown in Table 1 represent the average±standard deviation (SD) of two replicate plates for each strain tested.
# Zone of inhibition assays using PDA plates amended with 5-12% (w/v) calcium propionate were performed as described above. As a control, plates were amended with a composition comprising propiconazole, a commonly used fungicidal treatment for microbe infection of turfgrass, sold under the trademark Banner MaxxII®. Growth diameter was recorded for 13 days post inoculation. The data shown in Table 2 represent the average±standard deviation (SD) of three replicate plates for each strain tested. Inoculants of S. homoeocarpa, M. poae, and R. solani generally grow to luxuriant culture, covering the entire surface of the plate (8.5 cm growth) in 7 days.
# R. solani [2] = test: New inoculants in MEB liquid culture amended with calcium propionate; assay type: cell-based, Rhizoctonia solani; conditions: MEB with 1, 2, 5 and 10% (w/v) calcium propionate; five days
# Experimental: To examine the effective dose range in liquid culture, malt extract broth (MEB) was prepared and amended with calcium propionate at concentrations of 1, 2, 5 and 10% (w/v). Unamended MEB was used as a control for growth. Each of the four microbes identified in Example 1 was tested twice by inoculating MEB using agarose plugs from luxuriant cultures. Growth was observed over five days. In each microbe examined, visible growth in liquid culture was apparent by day 2 following inoculation with well-established growth by 4 days in the absence of calcium propionate.
# M. poae = assay type: cell-based, Magnaporthe poae; conditions: MEB with 1%, 2%, 5% or 10% (w/v) calcium propionate; five days
# S. homoeocarpa [3] = test: Growth on PDA with calcium propionate fully integrated into the agarose; assay type: cell-based, Scerotinia homoeocarpa; conditions: for Growth, S. homeocarpa: single plate
# Experimental: In contrast to the zone of inhibition assays described in Examples 1-3, for this experiment, PDA with calcium propionate fully integrated into the agarose was prepared. Thus, inoculants were grown on plates in which calcium propionate was incorporated at a uniform concentration throughout the plate, rather than the zones of concentration established by simple diffusion in the zone of inhibition assays. The PDA plates were amended with 5, 7.5, 10, or 12% (w/v) calcium propionate. Growth diameter was recorded for 15 days post inoculation. The data shown in Table 3 represent the results of single plate tests.
# S. homoeocarpa [4] = test: Established liquid cultures, two days calcium propionate then washout; assay type: cell-based, Scerotinia homoeocarpa
# Experimental: To further examine the impact of calcium propionate on established liquid cultures, MEB was inoculated by plug transfer and cultures were allowed to grow for one to six days. Following this, calcium propionate was added to active cultures to a final concentration of 1%, 2%, or 5% (w/v); control cultures had no calcium propionate. Calcium propionate was then added to established one to six day old cultures and cultures were allowed to grow in the presence of calcium propionate for two days, after which, calcium propionate was washed out and cultures were returned to MEB only. Growth following calcium propionate washout was recorded over 14 days.
# turfgrass = test: Golf Course 2: appearance of treated turfgrass; assay type: in vivo, Agrostis capillaris; conditions: 3-4 grams per square meter every 10 days; 10 days following initial application
# Experimental: Calcium propionate was dissolved in water to form a 5% (w/v) solution. […] The turfgrass was comprised primarily of Agrostis capillaris. The calcium propionate 5% (w/v) solution was sprayed onto the turfgrass at a concentration of 3-4 grams per square meter every 10 days.
structure (smiles),measurement,setting,value
CCC(=O)[O-].CCC(=O)[O-].[Ca+2] [calcium propionate],"Growth, R. solani","R. solani [1]; 5-12% (w/v) calcium propionate, day 2, average ± SD of three plates",2.6 ± 0.3 cm
same,"Growth, R. solani","R. solani [1]; 5-12% (w/v) calcium propionate, day 3, average ± SD of three plates",4.3 ± 0.3 cm
same,"Growth, R. solani","R. solani [1]; 5-12% (w/v) calcium propionate, day 6, average ± SD of three plates",8.5 ± 0 cm
same,"Growth, R. solani","R. solani [1]; 5-12% (w/v) calcium propionate, day 7, average ± SD of three plates",8.5 ± 0 cm
same,"Growth, R. solani","R. solani [1]; 5-12% (w/v) calcium propionate, day 10, average ± SD of three plates",8.5 ± 0 cm
same,"Growth, R. solani","R. solani [1]; 5-12% (w/v) calcium propionate, day 13, average ± SD of three plates",8.5 ± 0 cm
same,inhibition of R. solani growth,R. solani [1]; calcium propionate concentrations up to 12% (w/v),no inhibition
same,"growth inhibition, R. solani","R. solani [1]; wells 0.1-0.5% (w/v) calcium propionate, observed over seven days",no growth inhibition was observed
same,"growth inhibition, R. solani",R. solani [1]; wells 0.5-4% (w/v) calcium propionate,uninhibited
same,"Growth, R. solani","R. solani [1]; wells 0.5-4% (w/v) calcium propionate, day 2, average ± SD of two plates",3.3 ± 0.4 cm
same,"Growth, R. solani","R. solani [1]; wells 0.5-4% (w/v) calcium propionate, day 5, average ± SD of two plates",8.5 ± 0 cm
same,"Growth, R. solani","R. solani [1]; wells 0.5-4% (w/v) calcium propionate, day 7, average ± SD of two plates",8.5 ± 0 cm
same,"growth in liquid culture, R. solani",R. solani [2],no growth was observed
same,"growth of disrupted culture, M. poae",M. poae,No growth was observed
same,"Growth, S. homeocarpa","S. homoeocarpa [3]; PDA with 5% (w/v) calcium propionate, day 4",0 cm
same,"Growth, S. homeocarpa","S. homoeocarpa [3]; PDA with 5% (w/v) calcium propionate, day 5",0 cm
same,"Growth, S. homeocarpa","S. homoeocarpa [3]; PDA with 5% (w/v) calcium propionate, day 8",0 cm
same,"Growth, S. homeocarpa","S. homoeocarpa [3]; PDA with 5% (w/v) calcium propionate, day 11",0 cm
same,"Growth, S. homeocarpa","S. homoeocarpa [3]; PDA with 5% (w/v) calcium propionate, day 15",0 cm
same,"Growth, S. homeocarpa","S. homoeocarpa [3]; PDA with 7.5% (w/v) calcium propionate, day 4",0 cm
same,"Growth, S. homeocarpa","S. homoeocarpa [3]; PDA with 7.5% (w/v) calcium propionate, day 5",0 cm
same,"Growth, S. homeocarpa","S. homoeocarpa [3]; PDA with 7.5% (w/v) calcium propionate, day 8",0 cm
same,"Growth, S. homeocarpa","S. homoeocarpa [3]; PDA with 7.5% (w/v) calcium propionate, day 11",0 cm
same,"Growth, S. homeocarpa","S. homoeocarpa [3]; PDA with 7.5% (w/v) calcium propionate, day 15",0 cm
same,"Growth, S. homeocarpa","S. homoeocarpa [3]; PDA with 10% (w/v) calcium propionate, day 4",0 cm
same,"Growth, S. homeocarpa","S. homoeocarpa [3]; PDA with 10% (w/v) calcium propionate, day 5",0 cm
same,"Growth, S. homeocarpa","S. homoeocarpa [3]; PDA with 10% (w/v) calcium propionate, day 8",0 cm
same,"Growth, S. homeocarpa","S. homoeocarpa [3]; PDA with 10% (w/v) calcium propionate, day 11",0 cm
same,"Growth, S. homeocarpa","S. homoeocarpa [3]; PDA with 10% (w/v) calcium propionate, day 15",0 cm
same,"Growth, S. homeocarpa","S. homoeocarpa [3]; PDA with 12% (w/v) calcium propionate, day 4",0 cm
same,"Growth, S. homeocarpa","S. homoeocarpa [3]; PDA with 12% (w/v) calcium propionate, day 5",0 cm
same,"Growth, S. homeocarpa","S. homoeocarpa [3]; PDA with 12% (w/v) calcium propionate, day 8",0 cm
same,"Growth, S. homeocarpa","S. homoeocarpa [3]; PDA with 12% (w/v) calcium propionate, day 11",0 cm
same,"Growth, S. homeocarpa","S. homoeocarpa [3]; PDA with 12% (w/v) calcium propionate, day 15",0 cm
same,"growth, S. homoeocarpa","S. homoeocarpa [3]; any of the concentrations tested (5, 7.5, 10, 12% w/v), 15 days",no growth
same,"growth recovery over 14 days after removal, S. homoeocarpa",S. homoeocarpa [4]; 1% or 2% (w/v) calcium propionate,varying degrees of growth recovery
same,"growth while calcium propionate was present, S. homoeocarpa","S. homoeocarpa [4]; 1%, 2% or 5% (w/v), established one to six day old cultures, two days",growth was inhibited
same,"growth recovery over 14 days after removal, S. homoeocarpa",S. homoeocarpa [4]; 5% (w/v) treatment,no growth recovery was observed
same,"growth three days following removal of calcium propionate, S. homoeocarpa",S. homoeocarpa [4]; all concentrations tested (1-5% w/v),continued growth inhibition
same,appearance of the turfgrass,turfgrass,appeared healthy
